Reference: patent publication US7414069B2, “Antituberculosis compounds, Hirsutellones A, B, and C” (National Center for Genetic Engineering & Biotechnology, …, priority 2004, dated 2008)
Converted amounts (≈) assume the structure as drawn.

Key:
[1] = Cytotoxicity against NCI-H187 cells (sulforhodamine B staining); format: cell-based; conditions: human, NCI-H187 cells (lung cancer, ATCC CRL-5804), starting concentration 20 μg/ml
Method: (§1) Hirsutellones A, B and C were tested for cytotoxicity by incubating with Vero cells (African green monkey kidney cell line from American Type Culture Collection USA; ATCC # CCL-81). Each compound was dissolved in dimethyl sulfoxide and then diluted in the culture medium of the Vero cells (Eagle's Minimum Essential with 10% heat-inactivated fetal bovine serum and antibiotics). The Vero cells and the compound were incubated together in a 96-well microplate at a cell concentration of 1.9×10^4 cells/190 μl/well, in a CO2 incubator at 37° C. for 3 days.
(§2) The numbers of the cells in the wells were then determined by a staining method (Skehan, P., et al., J. Natl Cancer Inst., 82:1107-1112 (1990)). The cells were initially fixed by 50% cold trichloroacetic acid (TCA) at 4° C. for 30 minutes. The cells were then washed with water 4 times. After drying, the cells were stained with 0.05% sulforhodamine B in 1% acetic acid for 30 minutes, washed with ^1% acetic acid 4 times and dried at room temperature. Finally, 10 mM Tris-base pH 10 was added. The absorbance at 510 nm of test wells was measured by an ELISA microplate reader. The absorbance was proportionate to the number of the viable cells in the wells. The toxicity level of the compound was recorded as the concentration that rendered the number of viable cells to be less than half of the negative control wells, which contained the cells with DMSO but not the compound. Ellipticine was used as a positive control. The toxicity level of each compound against Vero cells was expressed as IC50.
(§3) Hirsutellones were also tested for cytotoxicity against multiple human cancer cell lines, to study the effects on human cells in vitro. The cancer cell lines included KB cells (oral epidermoid carcinoma; ATCC # CCL-17), BC cells (breast cancer) and NCI-H187 cells (lung cancer; ATCC # CRL-5804) The same protocol as that for the cytotoxicity assay against Vero cells was used, except for the starting compound concentration which was 20 μg/ml.

[2] = Cytotoxicity against BC cells (sulforhodamine B staining); format: cell-based; conditions: human, BC cells (breast cancer), starting concentration 20 μg/ml
Method: as §1, §2, §3

[3] = Cytotoxicity against KB cells (sulforhodamine B staining); format: cell-based; conditions: human, KB cells (oral epidermoid carcinoma, ATCC CCL-17), starting concentration 20 μg/ml
Method: as §1, §2, §3

[4] = test system: Mycobacterium tuberculosis H37Ra strain (ATCC 25166); assay: Microplate Alamar Blue Assay (MABA), antituberculous activity; format: cell-based; conditions: M. tuberculosis H37Ra, two-fold serial dilution from 50 μg/ml
Method: Preparation of Mycobacteria Mycobacterium tuberculosis H37Ra strain (ATCC 25166) was grown in 100 ml of Middlebrook 7H9 broth supplemented with 0.2% glycerol, 1.0 g/l of casitone, 10% OADC, and 0.05% Tween 80. The complete medium was referred to as 7H9GC-Tween. The bacteria were incubated in 500-ml flasks on a rotary shaker at 200 rpm and 37° C. until the optical density at 550 nm reached 0.4-0.5. The bacteria were washed twice with phosphate-buffered saline and then suspended in 20 ml of phosphate-buffered saline. The suspension was passed through an 8-μm-pore-size filter to eliminate clumps. The number of bacteria in the filtrates were counted by plating the bacteria in Middlebrook 7H10 agar. The filtrates were stored at −80° C.
Microplate Alamar Blue Assays (MABA) Anti-tuberculous testing was performed in a 96-well microplate as previously described (Collins, L. and Franzblau, S. G., Antimicrob. Agents Chemother., 41:1004-1009 (1997)). Outer perimeter wells were filled with sterile water to prevent dehydration of the test wells. Crude extracts were initially diluted with dimethyl sulfoxide, and then were diluted to a concentration of 400 μg/ml in Middlebrook 7H9 medium containing 0.2% V/V glycerol and 1.0 g/l casitone (7H9GC). The wells in rows B to G in columns 2, 4, 5, 6, 8, 9, 10 of the microplate were filled with 100 μl of 7H9GC. The wells in column 11 were inoculated with 200 μl of the medium to serve as media controls (M). Bacteria (only) controls (B) were set-up in column 10. One hundred microliters of each crude extract solution (400 μg/ml) were added to three wells in one row in columns 2 (or 6), 3 (or 7) and 4 (or 8). One hundred microliters were transferred from column 4 (or 8) to column 5 (or 9), the contents of the wells in column 5 (or 9) were mixed well and then 100 μl of mixed medium were discarded. The wells in columns 2 and 6 served as test sample controls.
Frozen bacterial inocula were diluted 1:200 in 7H9GC medium. One hundred microliters of the bacteria were added to the wells in rows B to G in columns 3 (or 7), 4 (or 8), 5 (or 9) and 10, resulting in final bacterial titers of approximately 5×10^4 CFU/ml. The wells in column 10 served as bacteria (only) controls (B). Final concentrations of extracts were 200, 100 and 50 μg/ml in columns 3 (or 7), 4 (or 8) and 5 (or 9), respectively.
The plates were sealed with Parafilm and were incubated at 37° C. for 5 days. At day 6 of incubation, 20 μl of Alamar Blue reagent and 12.5 μl of 20% Tween 80 were added to well B10 (B) and B11 (M). The plates were re-incubated at 37° C. for 24 h. […] If the B wells became pink by 24 h, reagent was added to the entire plate. If the well remained blue, the additional M and B wells were tested daily until a color change occurred at which time reagents were added to all remaining wells. The microplates were resealed with Parafilm and were then incubated at 37° C. The results were recorded 24 h after adding reagent.
Blue color in the well was interpreted as no growth, reflecting the activity of the test compound in the well. A pink color was scored as growth and reflected the lack of activity of the test compound. A few wells appeared violet after 24 h of incubation, but they invariably changed to pink after extra day of incubation and thus were scored as growth (while the adjacent blue wells remained blue). […]

[5] = Cytotoxicity against Vero cells (sulforhodamine B staining); format: cell-based; conditions: African green monkey, Vero cells (ATCC CCL-81), 37° C.
Method: as §1, §2

Structure (SMILES)	IC50 at 3 days [1] [µg/mL]	IC50 at 3 days [2] [µg/mL]	IC50 at 3 days [3] [µg/mL]	MIC [4] [µg/mL]	melting point	IC50 at 3 days [5] [µg/mL]
C=CC1C=CC2C3CC(C)CCC3C3Oc4ccc(cc4)CC4(O)NC(=O)C5(OC45)C(=O)C1C23 (centres unmarked) [Hirsutellone C]	8.3 (≈ 18 µM)	3.2 (≈ 6.93 µM)	4.6 (≈ 9.97 µM)	0.78 (≈ 1.69 µM)	234 to 235 °C (dec.)	12 (≈ 26 µM)
C=CC1C=CC2C3CC(C)CCC3C3Oc4ccc(cc4)CC4C(=O)NC(=O)C4C(=O)C1C23 (centres unmarked) [Hirsutellone A]	> 20	> 20	> 20	0.78 (≈ 1.75 µM)		> 50
C=CC1C=CC2C3CC(C)CCC3C3Oc4ccc(cc4)CC4(O)CC(C(=O)N4)C(=O)C1C23 (centres unmarked) [Hirsutellone B]	6 (≈ 13.4 µM)	> 20	> 20	0.78 (≈ 1.74 µM)	261 to 263 °C (dec.)	> 50
Cc1c2ccncc2c(C)c2c1[nH]c1ccccc12 [Ellipticine, reference compound]	0.39 (≈ 1.58 µM)	1.5 (≈ 6.09 µM)	1.3 (≈ 5.28 µM)			0.4 (≈ 1.62 µM)
NC[C@H]1O[C@H](O[C@H]2[C@H](O)[C@@H](O[C@H]3O[C@H](CO)[C@@H](O)[C@H](N)[C@H]3O)[C@H](N)C[C@@H]2N)[C@H](O)[C@@H](O)[C@@H]1O [kanamycin, reference compound]				2.5 (≈ 5.16 µM)		
NNC(=O)c1ccncc1 [isoniazid, reference compound]				0.04 (≈ 0.292 µM)		
